Test results taken from a compilation of properties of binary mixtures (doi:10.1007/s11581-010-0511-5).

Assay: xn = mol fraction of the nth substance listed
Settings: 101 kPa, x2 = 0

## CO + CCCC[N+]1(C)CCCC1.O=S(=O)([N-]S(=O)(=O)C(F)(F)F)C(F)(F)F
298.15 K
  viscosity: 0.7 mPa·s
303.15 K
  viscosity: 0.66 mPa·s
308.15 K
  viscosity: 0.61 mPa·s
313.15 K
  viscosity: 0.57 mPa·s
318.15 K
  viscosity: 0.53 mPa·s
